Measured values reported in US12077503B2, “Substituted cyclic amides and their use as herbicides” (FMC CORPORATION, priority 2015, dated 2024).
Where two headings read alike, the source gives them in different places.

How the values were obtained:
[1] = tested on: barnyardgrass (Echinochloa crus-galli); experiment: Test B flooded paddy test; type: in vivo; settings: Echinochloa crus-galli, Flood, 250 g ai/ha
Procedure, shortened: (§1)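 Visual ratings (0 none to 100 complete control) are relative to untreated plants, taken 13–15 d after treatment in a greenhouse. Test material went straight into floodwater standing 3 cm above the soil, kept constant, on plants at the 2-leaf stage.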

rice (Oryra sativa) = experiment: Test B flooded paddy test; type: in vivo; settings: Oryza sativa, Flood, 250 g ai/ha
Procedure, shortened: as §1

[2] = tested on: sedge, umbrella (small-flower umbrella sedge, Cyperus difformis); experiment: Test B flooded paddy test; type: in vivo; settings: Cyperus difformis, Flood, 250 g ai/ha
Procedure, shortened: as §1

[3] = tested on: ducksalad (Heteranthera limosa); experiment: Test B flooded paddy test; type: in vivo; settings: Heteranthera limosa, Flood, 250 g ai/ha
Procedure, shortened: as §1

[4] = scale of 0 to 100 where 0 is no effect and 100 is complete control, read-out: Barnyardgrass plant response rating
[5] = scale of 0 to 100 where 0 is no effect and 100 is complete control, read-out: Rice plant response rating
[6] = scale of 0 to 100 where 0 is no effect and 100 is complete control, read-out: Sedge, Umbrella plant response rating
[7] = scale of 0 to 100 where 0 is no effect and 100 is complete control, read-out: Ducksalad plant response rating
[8] = 360 h, visually evaluated after 13 to 15 d, read-out: Plant response rating, Barnyardgrass (0 to 100 scale where 0 is no effect and 100 is complete control)
[9] = 360 h, visually evaluated after 13 to 15 d, read-out: Plant response rating, Rice (0 to 100 scale where 0 is no effect and 100 is complete control)
[10] = 360 h, visually evaluated after 13 to 15 d, read-out: Plant response rating, Sedge, Umbrella (0 to 100 scale where 0 is no effect and 100 is complete control)
[11] = 360 h, visually evaluated after 13 to 15 d, read-out: Plant response rating, Ducksalad (0 to 100 scale where 0 is no effect and 100 is complete control)
[12] = 0 to 100 scale where 0 is no effect and 100 is complete control, read-out: Barnyardgrass plant response rating
[13] = 0 to 100 scale where 0 is no effect and 100 is complete control, read-out: Rice plant response rating
[14] = 0 to 100 scale where 0 is no effect and 100 is complete control, read-out: Sedge, Umbrella plant response rating
[15] = 0 to 100 scale where 0 is no effect and 100 is complete control, read-out: Ducksalad plant response rating

Row | SMILES | pest or weed control at 250 g/ha [1, 4] [%] | pest or weed control at 250 g/ha (rice (Oryra sativa); [5]) [%] | pest or weed control at 250 g/ha [2, 6] [%] | pest or weed control at 250 g/ha [3, 7] [%] | pest or weed control at 250 g/ha [2, 14] [%] | further results
1 | O=C1NCC(c2ccccc2)C1C(=O)Nc1ccc(C(F)(F)F)cc1 (centres unmarked) [Compound 1362] |  |  |  |  |  | melting point: 221 to 223 °C
2 | O=C1NC[C@H](c2cccc(C(F)(F)F)n2)[C@H]1C(=O)Nc1ccccc1F [Compound 940] | 0 | 0 | 0 | 0 |  | melting point: 164 to 167 °C
3 | O=C1NCC(c2ccccc2)C1C(=O)Nc1cc(F)ccc1F (centres unmarked) [Compound 1359] |  |  |  |  |  | melting point: 147 to 149 °C
4 | O=C(Nc1cccc(Cl)c1F)[C@H]1C(=O)N(C2CC2)CC[C@@H]1c1cccc(C(F)(F)F)c1 [Compound 926] | 0 | 0 | 0 | 0 |  | 
5 | C=CCN1C[C@H](c2ccc(OC)c(F)c2)[C@@H](C(=O)Nc2ccccc2C(F)(F)F)C1=O [Compound 723] | 0 | 0 | 0 | 0 |  | 
6 | CC(F)(F)c1cccc([C@H]2CNC(=O)[C@@H]2C(=O)Nc2ccccc2F)c1 [Compound 782] | 65 | 0 | 0 | 100 |  | 
7 | O=C1NC[C@H](c2ccc3c(c2)OCO3)[C@H]1C(=O)Nc1ccccc1F [Compound 767] | 0 | 0 | 0 | 100 |  | 
8 | O=C1NC[C@H](c2cncs2)[C@H]1C(=O)Nc1ccccc1F [Compound 1335] |  |  |  |  |  | pest or weed control at 250 g/ha [1, 8]: 0%; pest or weed control at 250 g/ha (rice (Oryra sativa); [9]): 0%; pest or weed control at 250 g/ha [2, 10]: 0%; pest or weed control at 250 g/ha [3, 11]: 0%
9 | COc1cc([C@H]2CN(C)C(=O)[C@@H]2C(=O)Nc2ccccc2SC)cc(OC)c1OC [Compound 1218] |  |  |  |  | 0 | pest or weed control at 250 g/ha [1, 12]: 0%; pest or weed control at 250 g/ha (rice (Oryra sativa); [13]): 0%; pest or weed control at 250 g/ha [3, 15]: 40%
10 | CSc1ccccc1NC(=O)[C@H]1C(=O)N(C)CC[C@@H]1c1ccc2c(c1)OC(F)(F)O2 [Compound 814] | 0 | 0 | 60 | 50 |  | 
11 | CN1C[C@H](c2ccc(C#N)cc2)[C@@H](C(=O)Nc2ccc(F)c(F)c2F)C1=O [Compound 1229] |  |  |  |  | 0 | pest or weed control at 250 g/ha [1, 12]: 50%; pest or weed control at 250 g/ha (rice (Oryra sativa); [13]): 0%; pest or weed control at 250 g/ha [3, 15]: 90%
12 | CN1C[C@H](c2ccc(C(F)(F)F)cc2)[C@@H](C(=O)Nc2ccccc2C2CC2)C1=O [Compound 747] | 0 | 15 | 0 | 90 |  | 
13 | CSc1ccccc1NC(=O)[C@H]1C(=O)NC[C@@H]1c1cc(C)cc(F)c1 [Compound 1306] |  |  |  |  | 0 | pest or weed control at 250 g/ha [1, 12]: 20%; pest or weed control at 250 g/ha (rice (Oryra sativa); [13]): 0%; pest or weed control at 250 g/ha [3, 15]: 100%
14 | O=C1NC[C@H](c2cccc3c2OC(F)(F)O3)[C@H]1C(=O)Nc1ccccc1F [Compound 754] | 0 | 0 | 0 | 40 |  | 
15 | CCc1ccc([C@H]2CNC(=S)[C@@H]2C(=O)Nc2ccccc2SC)cc1 [Compound 763] | 0 | 0 | 0 | 60 |  | 
16 | Cc1cc([C@H]2CNC(=O)[C@@H]2C(=O)Nc2ccccc2S(C)(=O)=O)ccc1Cl [Compound 1246] |  |  |  |  | 0 | pest or weed control at 250 g/ha [1, 12]: 0%; pest or weed control at 250 g/ha (rice (Oryra sativa); [13]): 0%; pest or weed control at 250 g/ha [3, 15]: 100%
17 | Cc1cc(F)cc([C@H]2CNC(=O)[C@@H]2C(=O)Nc2cccc(F)c2C)c1 [Compound 1308] |  |  |  |  | 0 | pest or weed control at 250 g/ha [1, 12]: 65%; pest or weed control at 250 g/ha (rice (Oryra sativa); [13]): 40%; pest or weed control at 250 g/ha [3, 15]: 100%

Row | SMILES | pest or weed control at 250 g/ha [1, 4] [%] | pest or weed control at 250 g/ha (rice (Oryra sativa); [5]) [%] | pest or weed control at 250 g/ha [2, 6] [%] | pest or weed control at 250 g/ha [3, 7] [%] | pest or weed control at 250 g/ha [2, 14] [%] | further results
18 | CS(=O)(=O)c1ccccc1NC(=O)[C@H]1C(=O)N(C2CC2)CC[C@@H]1c1cccc(C(F)(F)F)c1 [Compound 927] | 0 | 0 | 0 | 0 |  | 
19 | O=C1NC[C@H](c2ccc(OC(F)F)cc2)[C@H]1C(=O)Nc1ccccc1F [Compound 778] | 0 | 0 | 0 | 100 |  | 
20 | CN1C[C@H](c2cc(F)c(F)c(F)c2)[C@@H](C(=O)Nc2ccc(F)c(F)c2F)C1=O [Compound 757] | 75 | 80 | 0 | 100 |  | 
21 | CCc1ccc([C@H]2CNC(=S)[C@@H]2C(=O)Nc2cccc(F)c2F)cc1 [Compound 762] | 0 | 0 | 0 | 98 |  | 
22 | CN1C[C@H](c2cc(F)cc(F)c2)[C@@H](C(=O)Nc2ccc(F)cc2C(F)(F)F)C1=O [Compound 758] | 45 | 0 | 0 | 100 |  | 
23 | COc1c(F)ccc([C@H]2CNC(=O)[C@@H]2C(=O)Nc2ccccc2S(C)(=O)=O)c1Cl [Compound 916] | 0 | 0 | 0 | 100 |  | 
24 | CN1CC[C@H](c2cccc(Cl)c2)[C@@H](C(=O)Nc2ccccc2F)C1=O [Compound 922] | 0 | 0 | 0 | 0 |  | 
25 | O=C1NC[C@H](c2cscn2)[C@H]1C(=O)Nc1ccccc1F [Compound 752] | 0 | 0 | 0 | 0 |  | 
26 | N#Cc1cc([C@H]2CNC(=O)[C@@H]2C(=O)Nc2ccccc2F)ccc1F [Compound 1199] |  |  |  |  | 0 | pest or weed control at 250 g/ha [1, 12]: 40%; pest or weed control at 250 g/ha (rice (Oryra sativa); [13]): 0%; pest or weed control at 250 g/ha [3, 15]: 95%
27 | CN1C[C@H](c2ccc(C(F)(F)F)nc2)[C@@H](C(=O)Nc2ccc(F)c(F)c2F)C1=O [Compound 1373] |  |  |  |  |  | pest or weed control at 250 g/ha [1, 8]: 85%; pest or weed control at 250 g/ha (rice (Oryra sativa); [9]): 0%; pest or weed control at 250 g/ha [2, 10]: 0%; pest or weed control at 250 g/ha [3, 11]: 100%
28 | Cc1cccc([C@H]2CN(C)C(=O)[C@@H]2C(=O)Nc2cccc(F)c2C)c1 [Compound 1233] |  |  |  |  | 0 | pest or weed control at 250 g/ha [1, 12]: 80%; pest or weed control at 250 g/ha (rice (Oryra sativa); [13]): 15%; pest or weed control at 250 g/ha [3, 15]: 100%
29 | Cc1cc([C@H]2CN(C)C(=O)[C@@H]2C(=O)Nc2ccccc2F)no1 [Compound 1194] |  |  |  |  | 0 | pest or weed control at 250 g/ha [1, 12]: 0%; pest or weed control at 250 g/ha (rice (Oryra sativa); [13]): 0%; pest or weed control at 250 g/ha [3, 15]: 0%
30 | O=C1NC[C@H](c2ccc(C(F)(F)F)cc2)C1C(=O)Nc1c(F)cccc1CO (some centres unmarked) [Compound 1243] |  |  |  |  | 0 | pest or weed control at 250 g/ha [1, 12]: 0%; pest or weed control at 250 g/ha (rice (Oryra sativa); [13]): 0%; pest or weed control at 250 g/ha [3, 15]: 0%
31 | O=C1NC[C@H](c2ccc3c(c2)OCO3)[C@H]1C(=O)Nc1cccc(F)c1F [Compound 731] | 60 | 20 | 0 | 100 |  | 
32 | Cc1nc([C@H]2CN(C)C(=O)[C@@H]2C(=O)Nc2ccccc2F)cs1 [Compound 1280] |  |  |  |  | 0 | pest or weed control at 250 g/ha [1, 12]: 0%; pest or weed control at 250 g/ha (rice (Oryra sativa); [13]): 0%; pest or weed control at 250 g/ha [3, 15]: 0%
33 | CN1C[C@H](c2cc(F)cc(C(F)(F)F)c2)[C@@H](C(=O)Nc2cccc(Cl)c2F)C1=O [Compound 995] | 25 | 0 |  | 70 | 30 | 
34 | Cc1cc([C@H]2CNC(=O)[C@@H]2C(=O)Nc2ccc(F)cc2F)ccc1Cl [Compound 791] | 0 | 0 | 0 | 100 |  | 
